Here are results for 1 compound from patent publication US20080255134A1 (Artesian Therapeutics, Inc., priority 2004, published 2008).

Broadly, the IC50 is the concentration that gives 50% inhibition. Usually inhibition stands for the relative decrease from the control value, in per cent.

For one experiment, the target named is T1, PDE3 (Homo sapiens, UniProt Q14432).
T1 construct: from tissue; host or cells: human platelets
Briefly: In vitro assay for cAMP PDE-3 inhibitory activity. Type of experiment: biochemical. As for the experimental part:
Human platelet cyclic AMP phosphodiesterase was prepared according to the method of Alvarez et al., Mol. Pharmacol. 29: 554 (1986). The PDE incubation medium contained 10 mM Tris-HCl buffer, pH 7.7, 10 mM MgSO4, and 1 μM […] (0.2 μCi) in a total volume of 1.0 mL. Test compounds were dissolved in DMSO immediately prior to addition to the incubation medium, and the resulting mixture was allowed to stand for 10 minutes prior to the addition of enzyme. Following the addition of PDE, the contents were mixed and incubated for 10 minutes at 30° C. Three assays each were performed for each of five test compound concentrations, the mean of the determinations (n=3) at each concentration was plotted, and IC50 values were determined graphically.
(§1) The ability of Compounds 25 and 8c to inhibit PDE3 and β-adrenergic receptor activity was examined both in vitro and in vivo. […] Non-selective β-adrenergic and β1-adrenergic radioligand binding assays were performed using rat cortical membranes; β2-adrenergic receptor assays were performed using membranes isolated from CHO cells expressing human, recombinant b2-adrenergic receptor; non-selective α1-adrenergic receptor assays were performed using rat forebrain membranes; and PDE3 binding assays were performed on human platelets. Values in percent illustrate percent inhibition at 1000 nM concentration.

The target of experiment [1] is beta-receptors from rat cortical membranes. In words: Non-specific β-receptor radioligand binding, [3H]DHA. The following applies: read-out: Non-selective β-adrenergic IC50. As for the experimental part:
(§2) Non-selective β-adrenergic and β1-adrenergic radioligand binding assays were performed using rat cortical membranes; β2-adrenergic receptor assays were performed using membranes isolated from CHO cells expressing human, recombinant b2-adrenergic receptor; non-selective α1-adrenergic receptor assays were performed using rat forebrain membranes; and PDE3 binding assays were performed on human platelets. Values in percent illustrate percent inhibition at 1000 nM concentration.

Experiment [2] addresses T2, human recombinant beta-1 receptors (Homo sapiens, UniProt P08588).
T2 construct: expressed in transfected cells; host or cells: CHO-REX16 cells
Briefly: β1-receptor radioligand binding, [125I] iodocyanopindolol, CHO-REX16 cells. The following applies: at 100 nM. How it is done:
[…] receptor binding was measured in human recombinant beta-1 receptors expressed in CHO-REX16 cells, using [^125I] (-) iodocyanopindolol (2000 Ci/mmol) as the radioligand, as described in Kalaria et al., J. Neurochem. 53: 1772-81 (1998), and Minneman et al., Mol. Pharmacol. 16: 34-46 (1979).

The target in experiment [3] is T3, human recombinant beta-2 receptors (Homo sapiens, UniProt P07550).
T3 construct: expressed in transfected cells; host or cells: CHO-WT21 cells
T3 sequence (P07550 whole entry): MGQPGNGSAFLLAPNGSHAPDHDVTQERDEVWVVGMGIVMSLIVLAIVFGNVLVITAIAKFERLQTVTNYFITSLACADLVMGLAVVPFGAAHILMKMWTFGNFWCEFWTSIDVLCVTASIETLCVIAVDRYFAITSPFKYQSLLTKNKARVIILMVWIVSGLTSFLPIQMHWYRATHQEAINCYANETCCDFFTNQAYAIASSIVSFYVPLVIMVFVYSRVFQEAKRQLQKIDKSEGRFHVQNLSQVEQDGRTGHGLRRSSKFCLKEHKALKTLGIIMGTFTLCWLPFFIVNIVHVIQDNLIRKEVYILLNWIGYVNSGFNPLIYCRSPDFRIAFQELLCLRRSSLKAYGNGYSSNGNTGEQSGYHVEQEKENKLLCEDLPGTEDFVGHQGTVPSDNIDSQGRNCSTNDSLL
In words: β2-receptor radioligand binding, [125I] iodocyanopindolol, CHO-WT21 cells. As for the experimental part:
as §2

In another experiment the target is T4, β1-adrenergic receptor (Rattus norvegicus, UniProt P18090).
T4 construct: from tissue; host or cells: rat cortical membranes
T4 sequence (P18090 whole entry): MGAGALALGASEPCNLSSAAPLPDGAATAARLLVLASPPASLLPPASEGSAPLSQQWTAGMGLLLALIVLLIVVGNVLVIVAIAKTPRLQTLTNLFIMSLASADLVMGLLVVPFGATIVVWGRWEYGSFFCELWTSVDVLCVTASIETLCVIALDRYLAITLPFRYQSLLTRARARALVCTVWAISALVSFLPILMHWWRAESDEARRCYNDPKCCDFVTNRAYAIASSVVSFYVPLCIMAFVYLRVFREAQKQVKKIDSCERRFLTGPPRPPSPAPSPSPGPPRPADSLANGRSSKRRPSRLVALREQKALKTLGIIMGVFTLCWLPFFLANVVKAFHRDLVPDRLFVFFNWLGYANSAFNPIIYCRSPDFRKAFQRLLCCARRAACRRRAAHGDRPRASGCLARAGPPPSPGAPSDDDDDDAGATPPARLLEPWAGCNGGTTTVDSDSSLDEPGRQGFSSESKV
Briefly: β1-adrenergic radioligand binding assay using rat cortical membranes. As for the experimental part:
as §2

In another experiment the target is α1-adrenergic receptor. Briefly: Non-selective α1-adrenergic receptor assay using rat forebrain membranes. Type of experiment: binding. How it is done: as §1
The test system of experiment [4] is isolated ventricular myocytes. Briefly: Sarcomere shortening (contractility) in isolated ventricular myocytes. Type of experiment: cell-based, rabbit. As for the experimental part:
[…] Isoproterenol, a potent β-Adrenergic agonist, can produce large increases in cardiac contraction, calcium transient amplitude, and the rates of relaxation (acceleration of relaxation or lusitropic effect). The effects of isoproterenol are then antagonized with different concentrations of a compound of the present invention.
Cardiac myocytes were digested from healthy white New Zealand male rabbits (3-5 lbs), with enzymatic digestion. Briefly, each animal is anesthetized with ketamine (50 mg/kg) and xylazine (6 mg/kg)-IM injection in hind limb. Once the animal was sedated (˜10-15 min), 0.1-0.3 ml of pentobarbital was injected into the ear vein. The heart was exposed by a cut just below the rib-cage and bilateral thoracotomy and removed rapidly ensuring that aorta remains intact. The heart was immediately placed in oxygenated NT with Ca^2+ placed on ice for rinsing the blood out, cleared from vessels and pericardium, cannulated and maintained at 37° C. The heart was retrogradedly perfused and tissue digested with collagenase and protease. Digested myocytes were subsequently stored in 0.1 mM Ca^2+ normal tyrodes for further analyses. Sarcomere length changes upon treatment with test compounds were recorded at 37° C. in the presence of 2 mM calcium and analyzed with an IonOptix system. Sarcomere length data was acquired for each myocyte over an average of 10 beats duration, at pacing rates of 1, 2, and 3 Hz. Basal percent sarcomere shortening and length-frequency relation of each myocyte was evaluated, and serve as a measure of cellular viability.
In vitro studies were performed using rabbit ventricular tissue, to examine the effects of Compounds 25 and 8c on myocyte contractility. New Zealand male rabbits (1.5-2.5 kg) were anesthetized with ketamine (50 mg/kg) and xylazine (6 mg/kg)-IM. The heart was exposed and removed rapidly to ensure that the aorta remained intact. The ventricular tissue was digested enzymatically. Sarcomere shortening was measured in the presence of 2 mM calcium at 37° C. using an IonOptix system; reported values were at 2 Hz pacing frequency.

Experiment [5] relates to White New Zealand male rabbits. In words: In vivo β-adrenergic blockade, isoproterenol challenge (Protocol 1). On the set-up: species or system rabbit. As for the experimental part: (§3) Studies were performed on White New Zealand male rabbits (2-3 kg weight). Animals were initially anesthetized with ketamine (50 mg/kg; IM) and xylazine (6 mg/kg, IM). Subsequently, animals were intubated (via tracheotomy; 3 mm tube) and ventilated with 2% isoflurane (mixed in 95% O2+5% CO2). Each rabbit was instrumented for LV pressure (3F Millar catheter) through right carotid artery, arterial pressure (3F catheter, Cook Instruments) through left femoral artery, which was connected to a fluid-filled pressure transducer (BD Instruments), and ECG. Both pressure transducers were zeroed against atmospheric pressure, and calibrated before each study using an analog manometer. Upon completion of instrumentation, isoflurane was reduced to 1.25%, and the animal was covered for maintenance of body core temperature. Arterial and LV blood pressures (LVP) and the ECG signals were simultaneously digitally recorded on a PC. The recording system (Gould Instruments) and the corresponding software (Ponema, Gould Instruments) facilitated detailed calculation of various parameters directly from all signals and record on a separate file with a 1 sec resolution. Upon completion of the study protocol, rabbits were euthenized by isoflurane overdose (5% for at least 1 minute) and cardiac arrest through IV infusion of 5 ml 3 molar potassium chloride.
(§4) Once the physiological variables were stable, effects of each drug on hemodynamics and ECG were determined based on two different protocols: 1) infusion of a compound of the present invention to determine the effects of the compound itself mainly on contractility, and other hemodynamic indices; and 2) infusion of a compound of the present invention while the system was challenged with 0.5 ug/kg isoproterenol to determine the beta-adrenergic antagonism properties of each tested compound.
(§5) White New Zealand male rabbits (2-3 kg) were anesthetized and ventilated (95% O2+5% CO2) with 1.25% isoflurane. Each animal was instrumented for LV pressure (Millar, through left carotid artery), arterial pressure (left femoral artery), infusion (jugular vein), and electrocardiogram. The animals were administered intravenously based on one of these protocols:
Protocol 1: β-adrenergic blockade (isoproterenol challenge).

Experiment [6] relates to White New Zealand male rabbits. Briefly: In vivo hemodynamic effects of compounds administered alone (Protocol 2). On the set-up: species or system rabbit. How it is done:
as §3, §4, §5
Protocol 2: PDE3 inhibition (effects of compounds when administered alone).

The test system of experiment [7] is human fetal cardiac fibroblasts. In words: Cyclic-AMP production by fluorescence (intrinsic sympathomimetic activity). The following applies: IBMX (750 μM) present; compared to isoproterenol or forskolin; any concentration tested. Type of experiment: cell-based. How it is done: The effect of Compound 8c on cyclic-AMP production was determined in human fetal cardiac fibroblasts by fluorescence, presented in FIG. 18 as [F−Fo)/Fo], mean±SEM, N=4. IBMX (750 μM) was present in all assays.

The test system of experiment [8] is White New Zealand male rabbits. Briefly: In vivo β-adrenergic blockade, isoproterenol challenge (Protocol 1). Set-up: species or system rabbit; dose or concentration left out as unconfirmed. The note with it: during isoproterenol challenge, intravenous, FIG. 10.

Read-outs that look alike come from different tables or passages of the source.

T1 sequence (Q14432 whole entry): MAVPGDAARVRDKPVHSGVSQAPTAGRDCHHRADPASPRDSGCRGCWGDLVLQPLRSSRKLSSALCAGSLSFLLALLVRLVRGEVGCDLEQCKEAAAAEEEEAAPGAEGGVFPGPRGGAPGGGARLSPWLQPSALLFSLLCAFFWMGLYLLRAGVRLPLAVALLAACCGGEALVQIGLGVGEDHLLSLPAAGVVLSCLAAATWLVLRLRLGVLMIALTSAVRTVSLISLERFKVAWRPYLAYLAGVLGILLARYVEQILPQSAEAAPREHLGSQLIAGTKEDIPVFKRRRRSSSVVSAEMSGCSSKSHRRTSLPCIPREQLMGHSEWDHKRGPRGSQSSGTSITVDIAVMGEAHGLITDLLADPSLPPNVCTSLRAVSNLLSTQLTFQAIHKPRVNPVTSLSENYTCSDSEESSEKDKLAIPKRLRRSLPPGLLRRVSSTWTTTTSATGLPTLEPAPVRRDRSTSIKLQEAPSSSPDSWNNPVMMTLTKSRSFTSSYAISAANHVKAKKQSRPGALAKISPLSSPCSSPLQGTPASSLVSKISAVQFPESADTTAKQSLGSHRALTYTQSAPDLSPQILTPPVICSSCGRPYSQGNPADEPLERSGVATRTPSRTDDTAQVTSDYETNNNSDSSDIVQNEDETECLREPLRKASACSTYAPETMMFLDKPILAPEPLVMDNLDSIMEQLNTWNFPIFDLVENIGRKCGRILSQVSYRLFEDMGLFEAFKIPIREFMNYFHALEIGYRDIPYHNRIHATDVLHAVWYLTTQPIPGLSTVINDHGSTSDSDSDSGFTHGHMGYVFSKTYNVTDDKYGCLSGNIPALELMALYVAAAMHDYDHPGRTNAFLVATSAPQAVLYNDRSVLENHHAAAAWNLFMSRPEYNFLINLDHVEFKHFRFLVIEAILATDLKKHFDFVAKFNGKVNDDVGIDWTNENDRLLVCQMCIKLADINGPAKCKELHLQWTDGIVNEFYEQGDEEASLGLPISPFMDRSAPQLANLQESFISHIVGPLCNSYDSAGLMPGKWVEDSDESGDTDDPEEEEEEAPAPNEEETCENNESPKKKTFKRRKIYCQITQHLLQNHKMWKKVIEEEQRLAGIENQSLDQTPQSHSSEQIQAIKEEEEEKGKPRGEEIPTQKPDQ
T2 sequence (P08588 whole entry): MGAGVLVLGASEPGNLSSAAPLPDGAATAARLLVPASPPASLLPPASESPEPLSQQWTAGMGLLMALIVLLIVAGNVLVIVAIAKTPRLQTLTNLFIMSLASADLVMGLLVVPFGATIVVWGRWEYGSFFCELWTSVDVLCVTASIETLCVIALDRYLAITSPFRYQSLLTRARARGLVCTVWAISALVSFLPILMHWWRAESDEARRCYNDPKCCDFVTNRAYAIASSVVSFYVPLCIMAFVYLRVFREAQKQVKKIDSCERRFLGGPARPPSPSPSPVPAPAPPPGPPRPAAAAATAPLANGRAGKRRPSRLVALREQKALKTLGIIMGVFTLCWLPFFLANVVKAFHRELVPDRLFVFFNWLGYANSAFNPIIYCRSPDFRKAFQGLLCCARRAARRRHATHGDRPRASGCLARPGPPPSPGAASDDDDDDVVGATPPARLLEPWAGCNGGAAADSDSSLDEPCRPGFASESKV

For the compound `O=C1CCC(c2ccc(OCC(=O)N3CCC(NC[C@H](O)COc4ccccc4Cl)CC3)c(Cl)c2)=NN1` [Compound 8c, 6-[3-Chloro-4-(2-{4-[3-(2-chloro-phenoxy)-2-hydroxy-propylamino]-piperidin-1-yl}-2-oxo-ethoxy)-phenyl]-4,5-dihydro-2H-pyridazin-3-one], the IC50 at PDE3 (human platelet cyclic AMP phosphodiesterase, bound stated, read-out: PDE3 inhibition IC50) was below 1000 nM; on PDE3 (human platelets, read-out: PDE3 IC50), 150 nM; in experiment [1] it was 14 nM; in [3] (membranes from CHO cells expressing human recombinant β2-adrenergic receptor) it was 0.8 nM; at β1-adrenergic receptor, 5 nM; against α1-adrenergic receptor, 226 nM. Also, the inhibition at 0.1 µM in [2] and in [3] (at 100 nM) was above 25% throughout. For the same compound, in [4] (0.1 μM isoproterenol (not shown)), the “blocking of isoproterenol effect on myocyte contractility” value was “blocking the effects of 0.1 mM isoproterenol”. Moreover, the “contractility (sarcomere shortening) in isolated ventricular myocytes” value in experiment [4] (2 mM calcium, 37° C., 2 Hz pacing frequency) is given as “increased contractility”. In experiment [5] (doses that completely diminished isoproterenol-dependent increase in heart rate: atenolol 1 mg/kg, carvedilol 0.3 mg/kg, Compound 8c 1 mg/kg, mean±SEM), the “decrease of left ventricular contractility (% of isoproterenol effect)” value is 73±4%. The “β-adrenergic antagonism on heart rate (HR)” value in experiment [5] (during isoproterenol challenge (0.5 μg/kg), FIG. 11) is recorded as “dose-dependent β-adrenergic antagonism”. Moreover, the “heart rate when administered alone” value in [6] (Protocol 2, with and without atropine and bilateral vagotomy (FIG. 16)) is “did not increase heart rate”. In addition, the mean arterial pressure entry in experiment [6] (doses that completely diminished isoproterenol-dependent increase in heart rate, Protocol 2, FIG. 15) was “did not have a significant effect”. For the same compound, the “left ventricular contractility when administered alone” value in experiment [6] (protocol 2, relative to control, FIGS. 2, 12) is listed as “increased or maintained contractility in a dose-dependent manner”. Moreover, in experiment [7], the “intrinsic sympathomimetic activity (cyclic-AMP production)” value is “did not possess intrinsic sympathomimetic activity”. Further, in experiment [8], the “β-adrenergic antagonism on left ventricular contractility” value was “potent dose-dependent β-adrenergic antagonism”.
